One series has as its target L-proline-4-hydroxylase (Dactylosporangium salmoneum, UniProt A0ABP5TRQ3). As to the kind of experiment: Substrate omission and addition tests on the enzyme reaction (indispensable compounds, promoters, inhibitors). The format is biochemical, Dactylosporangium sp. RH1. To be noted: for Relative Activity: 80 mM TES pH 7.5, 30° C., 15 minutes, standard reaction mixture = 100; for activity of the enzyme in the presence of the ion, of the original activity: ion at 1 mM. How it is done: The reaction was initiated by addition of the enzyme and continued for 15 minutes at 30° C. The reaction was stopped by heating the reaction mixture at 100° C. for 2 minutes. […] The reaction was stopped by adding 30 μl of 1 N HCl to the reaction mixture, and the precipitates formed were removed therefrom by centrifugation and filtration.
The HPLC for the determination was carried out under the following conditions: […]

Substrate in series [1]: O=C(O)CCC(=O)C(=O)O
The series can be described thus: purified protein, by the assay type. The following applies: other: 80 mM MES buffer (pH 6.5), 4 mM L-ascorbic acid, 2 mM ferrous sulfate.

Substrate in series [2]: O=C(O)[C@@H]1CCCN1
As to the kind of experiment: purified protein, by the assay type. The following applies: other: 80 mM MES buffer (pH 6.5), 4 mM L-ascorbic acid, 2 mM ferrous sulfate.

Entries after “also recorded” stand apart in the source; their conditions may differ. Read-outs that look alike come from different tables or passages of the source.

Consider `[Cu+2]` [Cu^++], for which, on L-proline-4-hydroxylase, the “inhibition of the enzyme activity/reaction (in words)” value is on record as “inhibit the reaction; also recorded: inhibited” and the “activity of the enzyme in the presence of the ion, of the original activity” value is on record as 13%. The “Relative Activity” value on L-proline-4-hydroxylase (component added at 1 mM) is on record as 13.
Turning to `O=C(O)CN(CCN(CC(=O)O)CC(=O)O)CC(=O)O` [EDTA, ethylenediaminetetraacetic acid], the “inhibition of the enzyme activity/reaction (in words)” value is recorded as “inhibit the reaction” at L-proline-4-hydroxylase and “inhibited” on L-proline-4-hydroxylase (listed as ethylenediaminetetraacetic acid). Also, the “activity of the enzyme in the presence of EDTA” value at L-proline-4-hydroxylase (5 mM EDTA) is on record as “no activity of the enzyme was detected”. Also, the “Relative Activity” value on L-proline-4-hydroxylase (component added at 5 mM) is recorded as 0.
Regarding `O=C(O)[C@@H]1CCCN1` [L-proline], at L-proline-4-hydroxylase, the “need of the component for the enzyme reaction (in words)” value (from here on “need of the component”) is “indispensable”. Also, the “Relative Activity” value at L-proline-4-hydroxylase (component not added (omitted)) was 0.
Take `O=C1O[C@H]([C@@H](O)CO)C(O)=C1O` [L-ascorbic acid]: the “promotion of the enzyme activity/reaction (in words)” value is on record as “promotes the reaction” at L-proline-4-hydroxylase, “promotes the activity of the enzyme” on L-proline-4-hydroxylase (listed as Ascorbic acid) and “accelerates the activity of the enzyme” on L-proline-4-hydroxylase (listed as L-Ascorbic acid). In addition, at L-proline-4-hydroxylase (component not added (omitted)), the “Relative Activity” value is 51.
With `O=C(O)CCC(=O)C(=O)O` [2-ketoglutaric acid], the “need of the component” value at L-proline-4-hydroxylase is given as “indispensable”. Moreover, the “Relative Activity” value on L-proline-4-hydroxylase (component not added (omitted)) was 0.
As to `[Zn+2]` [Zn^++], at L-proline-4-hydroxylase, the “inhibition of the enzyme activity/reaction (in words)” value is “inhibit the reaction; also recorded: inhibited” and the “activity of the enzyme in the presence of the ion, of the original activity” value worked out at 6%. Further, the “Relative Activity” value on L-proline-4-hydroxylase (component added at 1 mM) is listed as 6.
Catalase: the “Relative Activity” value with L-proline-4-hydroxylase (component not added (omitted)) was found to be 93.
For the molecule `[Fe+2]` [Fe^++], the “need of the component” value at L-proline-4-hydroxylase is “indispensable”. Further, the “Relative Activity” value at L-proline-4-hydroxylase (component not added (omitted)) came to 0.

B1: L-proline-4-hydroxylase (Dactylosporangium salmoneum) (protein)
chain: MLTPTELKQYREAGYLLIEDGLGPREVDCLRRAAAALYAQDSPDRTLEKDGRTVRAVHGCHRRDPVCRDLVRHPRLLGPAMQILSGDVYVHQFKINAKAPMTGDVWPWHQDYIFWAREDGMDRPHVVNVAVLLDEATHLNGPLLFVPGTHELGLIDVERRAPAGDGDAQWLPQLSADLDYAIDADLLARLTAGRGIESATGPAGSILLFDSRIVHGSGTNMSPHPRGVVLVTYNRTDNALPAQAAPRPEFLAARDATPLVPLPAGFALAQPV
Turning to B1, the figures for the Michaelis-Menten constant (Km) in series [1] and in series [2] were 550 µM and 270 µM, respectively.

For the origin of these results see US6617140B2.
